Tests used:
Assay type in all cases: in vivo
[1] = test system: barnyardgrass (Echinochloa crus-galli); assay: Test B flooded paddy test; settings: for Plant response rating, Flood, Barnyardgrass: 250 g ai/ha, flooded paddy test, visual rating on 0 to 100 scale (0 no effect, 100 complete control) after 13 to 15 days; for Plant response rating, Barnyardgrass: Flood (flooded paddy test), 13 to 15 days
How it was run: (§1)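 Visual scores run from 0 (no effect) to 100 (complete control), assigned by comparison with controls 13 to 15 days after treatment. Test compounds went straight into water standing 3 cm above the soil, around plants at the 2-leaf stage kept in a greenhouse.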

rice (Oryza sativa) = assay: Test B flooded paddy test; settings: for Plant response rating, Flood, Rice: 250 g ai/ha, flooded paddy test, visual rating on 0 to 100 scale (0 no effect, 100 complete control) after 13 to 15 days; for Plant response rating, Rice: Flood (flooded paddy test), 13 to 15 days
How it was run: as §1

[2] = test system: umbrella sedge (Cyperus difformis); assay: Test B flooded paddy test; settings: for Plant response rating, Flood, Sedge, Umbrella: 250 g ai/ha, flooded paddy test, visual rating on 0 to 100 scale (0 no effect, 100 complete control) after 13 to 15 days; for Plant response rating, Sedge, Umbrella: Flood (flooded paddy test), 13 to 15 days
How it was run: as §1

[3] = test system: ducksalad (Heteranthera limosa); assay: Test B flooded paddy test; settings: for Plant response rating, Flood, Ducksalad: 250 g ai/ha, flooded paddy test, visual rating on 0 to 100 scale (0 no effect, 100 complete control) after 13 to 15 days; for Plant response rating, Ducksalad: Flood (flooded paddy test), 13 to 15 days
How it was run: as §1

[4] = test system: morningglory (Ipomoea spp.); assay: Test A pre-/postemergence plant response
From the text: (§2) Seeds of barnyardgrass (Echinochloa crus-galli), large crabgrass (Digitaria sanguinalis), giant foxtail (Setaria faberii), morningglory (Ipomoea spp.), pigweed (Amaranthus retroflexus), velvetleaf (Abutilon theophrasti), wheat (Triticum aestivum) and corn (Zea mays) were planted into a blend of loam soil and sand and treated preemergence with a directed soil spray using test chemicals formulated in a non-phytotoxic solvent mixture which included a surfactant. At the same time these species were also treated with postemergence applications of test compounds formulated in the same manner.
(§3) Plants ranged in height from two to ten cm and were in the one- to two-leaf stage for the postemergence treatment. Treated plants and untreated controls were maintained in a greenhouse for approximately ten days, after which time all treated plants were compared to untreated controls and visually evaluated for injury. Plant response ratings, summarized in Table A, are based on a 0 to 100 scale where 0 is no effect and 100 is complete control. A dash (-) response means no test result.

corn (Zea mays) = assay: Test A pre-/postemergence plant response
From the text: as §2, §3

[5] = test system: barnyardgrass (Echinochloa crus-galli); assay: Test A pre-/postemergence plant response
From the text: as §2, §3

[6] = test system: pigweed (Amaranthus retroflexus); assay: Test A pre-/postemergence plant response
From the text: as §2, §3

[7] = test system: velvetleaf (Abutilon theophrasti); assay: Test A pre-/postemergence plant response
From the text: as §2, §3

[8] = test system: wheat (Triticum aestivum); assay: Test A pre-/postemergence plant response
From the text: as §2, §3

[9] = test system: large crabgrass (Digitaria sanguinalis); assay: Test A pre-/postemergence plant response
From the text: as §2, §3

[10] = test system: giant foxtail (Setaria faberii); assay: Test A pre-/postemergence plant response
From the text: as §2, §3

[11] = 62 g ai/ha, scale of 0 to 100 where 0 is no effect and 100 is complete control
[12] = Postemergence, 125 g ai/ha, 0 to 100 scale where 0 is no effect and 100 is complete control
[13] = Postemergence, 500 g ai/ha, 0 to 100 scale, 0 = no effect, 100 = complete control, approx. ten days
[14] = Preemergence, 125 g ai/ha, 0 to 100 scale, 0 = no effect, 100 = complete control
[15] = Preemergence, 500 g ai/ha, visual injury, 0 to 100 scale (0 no effect, 100 complete control), approx. ten days
[16] = 125 g ai/ha, scale 0 to 100, 0 is no effect, 100 is complete control
[17] = Flood, 31 g ai/ha, scale 0 to 100 (0 no effect, 100 complete control)

CCCn1c(-c2ccn(C)n2)ncc(C(=O)C2=C(O)CCCC2=O)c1=O [Compound 135]
Plant response rating, Flood, Barnyardgrass [1]: 0
Plant response rating, Barnyardgrass [1, 11]: 0
Plant response rating, Flood, Rice (rice (Oryza sativa)): 0
Plant response rating, Rice (rice (Oryza sativa); [11]): 0
Plant response rating, Flood, Sedge, Umbrella [2]: 0
Plant response rating, Sedge, Umbrella [2, 11]: 0
Plant response rating, Flood, Ducksalad [3]: 40
Plant response rating, Ducksalad [3, 11]: 30
Plant response rating, Morningglory [4, 12]: 70
Plant response rating, Morningglory [4, 13]: 90
Plant response rating, Morningglory [4, 14]: 20
Plant response rating, Morningglory [4, 15]: 50
Plant response rating, Corn (corn (Zea mays); [12]): 0
Plant response rating, Corn (corn (Zea mays); [13]): 0
Plant response rating, Corn (corn (Zea mays); [14]): 0
Plant response rating, Corn (corn (Zea mays); [15]): 0
Plant response rating, Barnyardgrass [5, 12]: 10
Plant response rating, Barnyardgrass [5, 13]: 30
Plant response rating, Barnyardgrass [5, 14]: 0
Plant response rating, Barnyardgrass [5, 15]: 0
Plant response rating, Pigweed [6, 12]: 80
Plant response rating, Pigweed [6, 13]: 90
Plant response rating, Pigweed [6, 14]: 40
Plant response rating, Pigweed [6, 15]: 80
Plant response rating, Velvetleaf [7, 12]: 100
Plant response rating, Velvetleaf [7, 13]: 100
Plant response rating, Velvetleaf [7, 14]: 40
Plant response rating, Velvetleaf [7, 15]: 70
Plant response rating, Wheat [8, 12]: 0
Plant response rating, Wheat [8, 13]: 0
Plant response rating, Wheat [8, 14]: 0
Plant response rating, Wheat [8, 15]: 0
Plant response rating, Crabgrass, Large [9, 12]: 40
Plant response rating, Crabgrass, Large [9, 13]: 70
Plant response rating, Crabgrass, Large [9, 14]: 0
Plant response rating, Crabgrass, Large [9, 15]: 40
Plant response rating, Foxtail, Giant [10, 12]: 0
Plant response rating, Foxtail, Giant [10, 13]: 0
Plant response rating, Foxtail, Giant [10, 14]: 0
Plant response rating, Foxtail, Giant [10, 15]: 0

COCCn1c(-c2ccn(C)n2)ncc(C(=O)C2=C(O)CCCC2=O)c1=O [Compound 136]
Plant response rating, Flood, Barnyardgrass [1]: 25
Plant response rating, Barnyardgrass [1, 11]: 20
Plant response rating, Flood, Rice (rice (Oryza sativa)): 20
Plant response rating, Rice (rice (Oryza sativa); [11]): 15
Plant response rating, Flood, Sedge, Umbrella [2]: 50
Plant response rating, Sedge, Umbrella [2, 11]: 45
Plant response rating, Flood, Ducksalad [3]: 75
Plant response rating, Ducksalad [3, 11]: 55
Plant response rating, Morningglory [4, 12]: 100
Plant response rating, Morningglory [4, 13]: 100
Plant response rating, Morningglory [4, 14]: 30
Plant response rating, Morningglory [4, 15]: 60
Plant response rating, Corn (corn (Zea mays); [12]): 0
Plant response rating, Corn (corn (Zea mays); [13]): 0
Plant response rating, Corn (corn (Zea mays); [14]): 0
Plant response rating, Corn (corn (Zea mays); [15]): 0
Plant response rating, Barnyardgrass [5, 12]: 30
Plant response rating, Barnyardgrass [5, 13]: 80
Plant response rating, Barnyardgrass [5, 14]: 0
Plant response rating, Barnyardgrass [5, 15]: 60
Plant response rating, Pigweed [6, 12]: 80
Plant response rating, Pigweed [6, 13]: 100
Plant response rating, Pigweed [6, 14]: 80
Plant response rating, Pigweed [6, 15]: 100
Plant response rating, Velvetleaf [7, 12]: 100
Plant response rating, Velvetleaf [7, 13]: 100
Plant response rating, Velvetleaf [7, 14]: 70
Plant response rating, Velvetleaf [7, 15]: 100
Plant response rating, Wheat [8, 12]: 0
Plant response rating, Wheat [8, 13]: 0
Plant response rating, Wheat [8, 14]: 0
Plant response rating, Wheat [8, 15]: 0
Plant response rating, Crabgrass, Large [9, 12]: 80
Plant response rating, Crabgrass, Large [9, 13]: 90
Plant response rating, Crabgrass, Large [9, 14]: 20
Plant response rating, Crabgrass, Large [9, 15]: 60
Plant response rating, Foxtail, Giant [10, 12]: 30
Plant response rating, Foxtail, Giant [10, 13]: 50
Plant response rating, Foxtail, Giant [10, 14]: 0
Plant response rating, Foxtail, Giant [10, 15]: 0

COCCn1c(-c2cccc(Br)c2)ncc(C(=O)C2=C(O)CCCC2=O)c1=O [Compound 139]
Plant response rating, Flood, Barnyardgrass [1]: 35
Plant response rating, Barnyardgrass [1, 11]: 10
Plant response rating, Flood, Rice (rice (Oryza sativa)): 30
Plant response rating, Rice (rice (Oryza sativa); [11]): 10
Plant response rating, Flood, Sedge, Umbrella [2]: 85
Plant response rating, Sedge, Umbrella [2, 11]: 70
Plant response rating, Flood, Ducksalad [3]: 90
Plant response rating, Ducksalad [3, 11]: 75
Plant response rating, Morningglory [4, 12]: 100
Plant response rating, Morningglory [4, 13]: 100
Plant response rating, Morningglory [4, 14]: 0
Plant response rating, Morningglory [4, 15]: 80
Plant response rating, Corn (corn (Zea mays); [12]): 20
Plant response rating, Corn (corn (Zea mays); [13]): 40
Plant response rating, Corn (corn (Zea mays); [14]): 0
Plant response rating, Corn (corn (Zea mays); [15]): 20
Plant response rating, Barnyardgrass [5, 12]: 60
Plant response rating, Barnyardgrass [5, 13]: 80
Plant response rating, Barnyardgrass [5, 14]: 40
Plant response rating, Barnyardgrass [5, 15]: 90
Plant response rating, Pigweed [6, 12]: 90
Plant response rating, Pigweed [6, 13]: 100
Plant response rating, Pigweed [6, 14]: 70
Plant response rating, Pigweed [6, 15]: 100
Plant response rating, Velvetleaf [7, 12]: 100
Plant response rating, Velvetleaf [7, 13]: 100
Plant response rating, Velvetleaf [7, 14]: 60
Plant response rating, Velvetleaf [7, 15]: 90
Plant response rating, Wheat [8, 12]: 20
Plant response rating, Wheat [8, 13]: 40
Plant response rating, Wheat [8, 14]: 0
Plant response rating, Wheat [8, 15]: 10
Plant response rating, Crabgrass, Large [9, 12]: 70
Plant response rating, Crabgrass, Large [9, 13]: 80
Plant response rating, Crabgrass, Large [9, 14]: 90
Plant response rating, Crabgrass, Large [9, 15]: 100
Plant response rating, Foxtail, Giant [10, 12]: 50
Plant response rating, Foxtail, Giant [10, 13]: 80
Plant response rating, Foxtail, Giant [10, 14]: 20
Plant response rating, Foxtail, Giant [10, 15]: 70

COCCCn1c(-c2cccc(Cl)c2)ncc(C(=O)C2=C(O)CCCC2=O)c1=O [Compound 143]
Plant response rating, Flood, Barnyardgrass [1]: 20
Plant response rating, Barnyardgrass [1, 11]: 0
Plant response rating, Barnyardgrass [1, 16]: 0
Barnyardgrass plant response rating [1, 17]: 0
Plant response rating, Flood, Rice (rice (Oryza sativa)): 0
Plant response rating, Rice (rice (Oryza sativa); [11]): 0
Plant response rating, Rice (rice (Oryza sativa); [16]): 0
Rice plant response rating (rice (Oryza sativa); [17]): 0
Plant response rating, Flood, Sedge, Umbrella [2]: 65
Plant response rating, Sedge, Umbrella [2, 11]: 0
Plant response rating, Sedge, Umbrella [2, 16]: 0
Sedge, Umbrella plant response rating [2, 17]: 0
Plant response rating, Flood, Ducksalad [3]: 90
Plant response rating, Ducksalad [3, 11]: 80
Plant response rating, Ducksalad [3, 16]: 80
Ducksalad plant response rating [3, 17]: 80
Plant response rating, Morningglory [4, 12]: 90
Plant response rating, Morningglory [4, 13]: 100
Plant response rating, Morningglory [4, 14]: 10
Plant response rating, Morningglory [4, 15]: 70
Plant response rating, Corn (corn (Zea mays); [12]): 10
Plant response rating, Corn (corn (Zea mays); [13]): 20
Plant response rating, Corn (corn (Zea mays); [14]): 0
Plant response rating, Corn (corn (Zea mays); [15]): 0
Plant response rating, Barnyardgrass [5, 12]: 70
Plant response rating, Barnyardgrass [5, 13]: 90
Plant response rating, Barnyardgrass [5, 14]: 40
Plant response rating, Barnyardgrass [5, 15]: 90
Plant response rating, Pigweed [6, 12]: 70
Plant response rating, Pigweed [6, 13]: 90
Plant response rating, Pigweed [6, 14]: 70
Plant response rating, Pigweed [6, 15]: 90
Plant response rating, Velvetleaf [7, 12]: 100
Plant response rating, Velvetleaf [7, 13]: 100
Plant response rating, Velvetleaf [7, 14]: 70
Plant response rating, Velvetleaf [7, 15]: 100
Plant response rating, Wheat [8, 12]: 0
Plant response rating, Wheat [8, 13]: 10
Plant response rating, Wheat [8, 14]: 0
Plant response rating, Wheat [8, 15]: 0
Plant response rating, Crabgrass, Large [9, 12]: 70
Plant response rating, Crabgrass, Large [9, 13]: 90
Plant response rating, Crabgrass, Large [9, 14]: 50
Plant response rating, Crabgrass, Large [9, 15]: 90
Plant response rating, Foxtail, Giant [10, 12]: 60
Plant response rating, Foxtail, Giant [10, 13]: 80
Plant response rating, Foxtail, Giant [10, 14]: 10
Plant response rating, Foxtail, Giant [10, 15]: 70
